Here are results for one compound from US7001756B1, “Microorganism strain of GM-020 of Lactobacillus rhamnosus and its use for treating obesity” (GenMont Biotech Inc., priority 2004, dated 2006).

Data set [1] can be described thus: Liver and kidney function assays (serum GOT, GPT, creatinine, uric acid). The conditions noted are these: 4 weeks treatment, GM-020 10^9 CFU/mL or PPA 4.875 mg each time, twice a day. How it is done: Animal model: Male ICR mice were purchased from National Laboratory Animal Center in Taiwan and raised alone in light for 12 hours and in dark for 12 hours at a temperature of 25±1° C. and a humidity of 60±5%. Food and water were supplemented sufficiently. The mice were divided into two groups. One was normal control group and the other was high energy group. The normal control group was fed with normal diet, and the high energy group was fed with high energy diet containing 48% dry feeding stuff, 8% corn oil and 44% condensed milk. The mice's body weights were measured every week. The high energy group was further divided into groups as listed below according treatment: (a) 1× of wood ear, (b) 1× of wood ear combined with GM-020, (c) GM-020, (d) 10× of wood ear, (e) 10× of wood ear combined with GM-020, (f) negative control treated with normal saline, and (g) positive control treated with PPA.
Treatment with GM-020 and/or wood ear: The normal control group was fed with normal diet continuously. The treatments were administrated twice a day. The dosage of PPA was 4.875 mg each time. In the meal of 1× of wood ear, there was 15.6 mg of wood ear in 3 g diet, and in the meal of 10× of wood ear, there is 156 mg of wood ear in 3 g diet. The dosage of GM-020 was 10^9 CFU/mL.
Liver and kidney function assays: The blood samples were treated as described above.
For each sample, the concentration of creatinine was assayed according to Jaffe Reaction method (Unichem®, Japan) and the absorption was measured with Autoanalyzer Hitachi™ 7150. The concentration of GOT was assayed with GOT (ASAT) IFCC mod™. (HUMAN®, Germany) and the absorption was measured with Autoanalyzer Hitachi™ 7150. The concentration of GPT was assayed with GPT (ALAT) IFCC mod™. (HUMAN®, Germany) and the absorption was measured with Autoanalyzer Hitachi™ 7150. The concentration of uric acid (UA) was assayed according to uricase-peroxidase method (Unichem®, Japan) and the absorption was measured with Autoanalyzer Hitachi™ 7150.
The data were analyzed with Kruskal Wallis H Test, and that of the normal control group was taken as a baseline for Dunnett Test.

Data set [2] can be described thus: Obesity model: body weight of ICR mice on high energy diet. It is filed as in vivo. The conditions noted are these: GM-020 10^9 CFU/mL or PPA 4.875 mg each time, twice a day. As for the experimental part: (§1) Food and water were supplemented sufficiently. The mice were divided into two groups. […] The mice's body weights were measured every week.
(§2) The treatments were administrated twice a day.
Body weight difference: After treated for 4 weeks, blood samples were collected from the tails for biochemical assay.

The nature of data set [3]: Obesity model: serum concentration of fat metabolites. The data set is classed as in vivo, ICR mice. The conditions noted are these: 4 weeks treatment, GM-020 10^9 CFU/mL or PPA 4.875 mg each time, twice a day. How it is done:
as §1, §2
Serum concentration of fat metabolites: Blood samples were collected from the tails for biochemical assay. The blood samples were stayed at room temperature for 1 hour and centrifuged at 2,500 rpm for 10 minutes. The upper layer of serum was taken for assay.
The concentration of triacylglycol (TG) of each group was assayed with TRI[…] LIQUID REAGENT™ (ASK®, Taiwan) and the absorption was measured with Autoanalyzer Hitachi™ 7150. The concentration of total cholesterol (CHOL) was assayed with C[…] REAGENT™ (ASK®, Taiwan), and the absorption was measured with Autoanalyzer Hitachi™ 7150.

A short description of data set [4]: Obesity model: liver concentration of fat metabolites. The conditions noted are these: right lobe of liver; 4 weeks treatment; GM-020 10^9 CFU/mL or PPA 4.875 mg each time, twice a day. The data set is classed as in vivo, ICR mice. As for the experimental part:
as §1, §2
Liver concentration of fat metabolites: The mice were sacrificed, and the right lobe of liver was taken. The fat was extract according to the conventional method.
For each sample, the concentration of triacylglycol (TG) and total cholesterol (CHOL) were assayed as mentioned above.

A short description of data set [5]: Obesity model: lipid tissue weight around the testicle and the kidney. The conditions noted are these: after 4 weeks treatment; GM-020 10^9 CFU/mL or PPA 4.875 mg each time, twice a day. It is filed as in vivo, ICR mice. As for the experimental part:
as §1, §2
Differences of lipid tissue weight around the testicle: The mice were sacrificed, and the lipid tissues around the testicle were taken and weighted.
Differences of lipid tissue weight around the kidney: The mice were sacrificed, and the lipid tissues around the kidney were taken and weighted.

Take `CC(N)C(O)c1ccccc1` (centres unmarked) [Positive Control, phenylpropanolamine]: in data set [1], the Creatinine is recorded as 0.56 ± 0.03, the GOT turned out to be 117.50 ± 12.95, the GPT stood at 47.00 ± 6.17 and the “UA (uric acid)” value came out at 2.42 ± 0.50. In data set [2] (after 2 weeks), the “body weight compared with the negative control group” value is given as “significant decrease”. Further, the “body weight compared with the negative control group” value in data set [2] (after 3 weeks) was “significant decrease”. In data set [3], the “CHOL (serum concentration of total cholesterol)” value turned out to be 219.08 ± 11.22, the “HDL (serum concentration of HDL-C)” value worked out at 123.19 ± 4.20, the “LDL (serum concentration of LDL-C)” value stood at 10.04 ± 0.93 and the “TG (serum concentration of triacylglycol)” value was 75.83 ± 9.93. In addition, in data set [4], the “CHOL (liver concentration of total cholesterol)” value was determined as 26.75 ± 1.48 and the “TG (liver concentration of triacylglycol)” value was determined as 103.58 ± 11.41. Moreover, in data set [5], the “lipid tissue weight around the kidney compared with the negative control group” value is “little difference” and the “lipid tissue weight around the testicle compared with the negative control group” value is on record as “significant decrease”.
